Assay results reported in PMC5764959, “Signaling ammonium across membranes through an ammonium sensor histidine kinase” (Nature Communications, 2018).
Values belong to the molecule of their own block, whether it stands above or below them.

Legend:
[1] = molecular target: T1, Ks-Amt5 (ammonium sensor histidine kinase, HK domain) (Candidatus Kuenenia stuttgartensis, UniProt Q1Q357); test: isothermal titration calorimetry; assay type: binding
T1 construct: gene amtb; Ks-Amt5^426–679 (soluble HK domain)
T1 sequence (Q1Q357 entry or part of it): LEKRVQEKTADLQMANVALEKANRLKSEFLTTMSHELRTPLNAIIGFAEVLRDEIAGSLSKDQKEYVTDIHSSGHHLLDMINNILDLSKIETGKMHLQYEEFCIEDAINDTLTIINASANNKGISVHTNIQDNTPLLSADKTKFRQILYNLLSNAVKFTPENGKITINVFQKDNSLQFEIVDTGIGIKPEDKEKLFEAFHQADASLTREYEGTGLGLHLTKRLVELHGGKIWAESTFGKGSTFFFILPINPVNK

[2] = molecular target: T1, Ks-Amt5 (ammonium sensor histidine kinase, HK domain); test: isothermal titration calorimetry (also SAXS and […] autophosphorylation); assay type: binding
[3] = molecular target: T2, Ks-Amt5 (ammonium sensor/transducer) (Candidatus Kuenenia stuttgartensis, UniProt Q1Q357); test: microscale thermophoresis (weak; no electrogenic response); assay type: binding; set-up: gene amtb; Ks-Amt5
T2 sequence (Q1Q357 1-679): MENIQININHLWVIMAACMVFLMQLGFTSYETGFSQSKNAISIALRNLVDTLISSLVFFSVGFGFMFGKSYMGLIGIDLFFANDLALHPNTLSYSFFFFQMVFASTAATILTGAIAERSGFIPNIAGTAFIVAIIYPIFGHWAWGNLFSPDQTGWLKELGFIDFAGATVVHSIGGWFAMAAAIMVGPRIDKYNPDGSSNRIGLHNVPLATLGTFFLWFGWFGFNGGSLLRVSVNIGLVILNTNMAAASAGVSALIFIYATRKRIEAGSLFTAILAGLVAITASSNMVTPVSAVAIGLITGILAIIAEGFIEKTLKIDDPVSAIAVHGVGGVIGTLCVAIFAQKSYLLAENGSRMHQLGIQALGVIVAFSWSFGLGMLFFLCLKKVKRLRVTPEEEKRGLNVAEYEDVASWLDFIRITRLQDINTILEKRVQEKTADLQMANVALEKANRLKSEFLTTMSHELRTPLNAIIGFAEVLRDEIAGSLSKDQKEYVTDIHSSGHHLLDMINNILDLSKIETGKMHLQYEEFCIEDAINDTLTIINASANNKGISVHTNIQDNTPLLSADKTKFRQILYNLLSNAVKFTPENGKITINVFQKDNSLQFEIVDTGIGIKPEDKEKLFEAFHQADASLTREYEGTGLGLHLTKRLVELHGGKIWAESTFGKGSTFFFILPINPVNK

[4] = molecular target: T2, Ks-Amt5 (ammonium sensor/transducer); test: biochemical; set-up: gene amtb
[5] = molecular target: Ks-Amt5 (kust_3690), full-length ammonium sensor histidine kinase (Candidatus Kuenenia stuttgartiensis); test: SEC; Superdex 200 26/60; buffer C (20 mM HEPES/NaOH pH 7.5 or 20 mM Tris/HCl pH 8.0, 100 mM NaCl) with 5-10 % glycerol and detergent; 4 °C; self-association of the detergent-solubilized protein
[6] = molecular target: Ks-Amt5 (kust_3690), full-length ammonium sensor histidine kinase (Candidatus Kuenenia stuttgartiensis); test: crystal structure; full-length Ks-Amt5; space group P6_(3); 1.98 Å; only the Amt domain (residues 1-405) modelled, HK domain disordered
[7] = molecular target: Ks-Amt5 (kust_3690), full-length ammonium sensor histidine kinase (Candidatus Kuenenia stuttgartiensis); test: SAXS; full-length Ks-Amt5 in 0.09 % CYMAL-5; batch or SEC-SAXS (Superdex 200 10/300); buffer C with 5 % glycerol; 20 °C; molecular weight from forward scattering I(0)
[8] = molecular target: T1, Ks-Amt5 (ammonium sensor histidine kinase, HK domain); test: SAXS, compaction of the HK domain on nucleotide addition; assay type: binding

Kd [1]: 36.74 ± 0.05 µM
Molecule: Nc1ncnc2c1ncn2[C@@H]1O[C@H](CO[P@](=O)(O)O[P@](=O)(O)O[P@@](=O)(O)S)[C@@H](O)[C@H]1O [ATPγS]

Molecule: Nc1ncnc2c1ncn2[C@@H]1O[C@H](COP(=O)(O)OP(=O)(O)OP(=O)(O)O)[C@@H](O)[C@H]1O [ATP]
Kd [2]: 11.16 ± 0.03 µM

Molecule: CN [MA, methylammonium]
Kd [3]: 2350 ± 440 µM

Kd [4]: 41 ± 24 µM
Molecule: N [NH4^+]

stoichiometry N [5]: 3
stoichiometry N [6]: 3
stoichiometry N [7]: 3
Molecule: Ks-Amt5 (kust_3690), full-length ammonium sensor histidine kinase (natural protein)

Molecule: Nc1ncnc2c1ncn2[C@@H]1O[C@H](COP(=O)(O)OP(=O)(O)CP(=O)(O)O)[C@@H](O)[C@H]1O [APPCP]
SAXS, compaction of the HK domain on nucleotide addition [8]: change toward a more compact and less-flexible structure when either APPCP or ATP are added to the HK domain
